Columns and labels:
human lung cancer H460 = assay: Transwell migration assay, H460; type: cell-based; settings: 12.5 μM CMP pretreatment 30 min, 18 hours
Method: FIG. 10 illustrates Tumor migration inhibition by CMP. A549, H460 and mouse colon cancer cells were incubated with CMP at 37° C. for 30 min before adding to the top chamber of transwell membranes in 24-well dishes at a density of 2×10^4 cells/well. Data represented the mean±S.E. of triplicate samples from a representative experiment. The experiment was repeated at least three times with similar results
Cancer cell inhibition by CMP was performed in a 24-well Transwell chamber consisting of a cell culture insert (6.4 mm diameter, 8-1 μm pore polyethylene tetraphtalate membrane, [Becton Dickinson]) set in each well of a 24-well companion plate (Becton Dickinson). Briefly, 3×10^4 cancer cells were suspended and pretreated with 5 and 12.5 μM CMP for 30 min in a total volume of 200 μL. Cell suspensions were inoculated into the upper chamber of an insert, 5% fetal bovine serum (FBS) in medium as a chemoattractant was added to the plate well in the bottom chamber, and incubated for 18 hours in a humidified incubator at 37° C. with 5% CO2. The non-migratory cells on the upper membrane surface were removed with a cotton swab, and the migratory cells attached to the lower membrane surface were fixed with 4% paraformaldehyde and stained with 0.2% crystal violet. The number of migrated cells was counted in four randomly selected high power fields under microscope. […]

human CCL11 = assay: CCL11 protein release from Beas-2B cells by ELISA; type: cell-based; settings: Beas-2B cells, 24 h
Method: FIG. 2 illustrates CCL11 expression in CMP and ECP co-treated Beas-2B cells. Beas-2B cells were starved with serum free medium for 24 h, followed by stimulation with ECP (column 2). Cells were stimulated with PBS as negative control (column 1) and ECP in the absence of CMP (column 2) or presence of 1 μM (column 3), 2.5 μM (column 4), 5 μM (column 5), 10 μM (column 6) CMP at 37° C. for 24 h. CCL11 protein level was determined by ELISA kit employing CCL11 antibody. The data represented mean±SD (standard deviation) of at least three independent experiments. ***, p<0.001; **, p<0.01
FIG. 3 illustrates CCL11 expression in CMP and IL-4 co-treated Beas-2B cells. Beas-2B cells were starved with serum free medium for 24 h, followed by stimulation with PBS (column 1) or 10 ng/mL IL-4 (column 2-7). Cells were stimulated with 10 ng/mL IL-4 in the absence […] or presence of 1 μM (column 3), 2.5 μM (column 4), 5 μM (column 5) and 10 μM (column 6) CMP at 37° C. for 24 h. CCL11 protein level was determined by ELISA kit employing CCL11 antibody. The data represented mean±SD (standard deviation) of at least three independent experiments. ***, p<0.001 (Stimulation with IL-4 compared with PBS treated Beas-2B cells). *, p<0.05 (Stimulation with indicated concentrations of CMP compared with IL-4 treated Beas-2B cells).
CCL11 ELISA kit (R&D) is an in vitro enzyme-linked immunosorbent assay for quantitative determination of human CCL11 concentration in cell culture supernatants. This assay employed an antibody specific for human CCL11 coated on a 96-well plate. The wells were incubated with 50 μL standard or sample for 2.5 hours at room temperature. After washing with 1× wash solution five times, 200 μL of CCL11 conjugate were added into each wells for 1 h. After washing, 100 μL TMB One-Step Substrate Reagent were added into each wells at room temperature for 30 minutes. 50 μL of Stop Solution were added into each wells and read at 450 nm by spectrophotometer immediately. Limit of detection in the assay was 5 pg/mL.
To investigate whether CMP influenced ECP-mediated CCL11 expression, Beas-2B cells were separately stimulated with 5 μM ECP in the absence of CMP and in the presence of 1 μM, 2.5 μM, 5 μM and 10 μM CMP at 37° C. for 24 h.
To further investigate whether CMP influenced CCL11 production from other stimulation in Beas-2B cells, serum-deprived Beas-2B cells were stimulated with 10 ng/mL IL-4, a dominant cytokine regulating CCL11, alone or in the presence of CMP at concentrations 1, 2.5, 5 and 10 μM at 37° C. for 24 h.

NYRWRCKNQN (CMP)
decrease of migration activity (human lung cancer H460): 50% | release of CCL11 induced by IL-4, reduced to (human CCL11; 10 ng/mL IL-4 with 5 μM CMP): 48.1 pg/mL | release of CCL11 induced by IL-4, reduced to (human CCL11; 10 ng/mL IL-4 with 10 μM CMP): 30.2 pg/mL | CCL11 production induced by IL-4 (human CCL11; 10 ng/mL IL-4 with 1 or 2.5 μM CMP): did not reduce | CCL11 induced by ECP, reduced to (human CCL11; 5 μM ECP and 5 μM CMP): 7.55 pg/mL | CCL11 induced by ECP, reduced to (human CCL11; 5 μM ECP and 10 μM CMP): 8.94 pg/mL | ECP-mediated CCL11 production (human CCL11; 5 μM ECP and 1 or 2.5 μM CMP): did not reduce

Source: patent US9315544B2, “Method of treating eosinophilia by administering an immunomodulating peptide” (National Tsing Hua University, priority 2012, dated 2016)
